According to patent US20120129842A1, “BISTHIAZOLE INHIBITORS OF PRO-MATRIX METALLOPROTEINASE ACTIVATION” (priority 2010, published 2012):
Structures can show the parent of a compound that is named as a salt.

Assays:
[1] = molecular target: T1, proMMP9(20-445;ΔFnII) (SEQ ID NO:6) (Homo sapiens, UniProt P14780, DEL216-390); experiment: ThermoFluor binding assay with proMMP9(20-445;ΔFnII); settings: pH 7.0
T1 construct: start methionine (N); made in house; host or cells: E. coli BL21(DE3) RIL
T1 sequence (P14780 with tags, fused parts or gaps DEL216-390): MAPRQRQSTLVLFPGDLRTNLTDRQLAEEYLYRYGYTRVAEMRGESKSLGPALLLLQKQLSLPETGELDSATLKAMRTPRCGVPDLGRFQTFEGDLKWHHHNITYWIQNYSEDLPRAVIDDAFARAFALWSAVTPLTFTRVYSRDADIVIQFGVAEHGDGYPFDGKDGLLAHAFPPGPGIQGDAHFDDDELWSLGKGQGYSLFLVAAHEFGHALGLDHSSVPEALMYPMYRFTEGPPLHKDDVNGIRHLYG
Protocol: (§1) The ThermoFluor® (TF) assay is a 384-well plate-based binding assay that measures thermal stability of proteins (Biomol Screen 2001, 6, 429-40; Biochemistry 2005, 44, 5258-66). The experiments were carried out using instruments available from Johnson & Johnson Pharmaceutical Research & Development, LLC. TF dye used in all experiments was […] (1,8-ANS) (Invitrogen: A-47).
(§2) Compounds were arranged in a pre-dispensed plate (Greiner Bio-one: 781280), wherein compounds were serially diluted in 100% DMSO across 11 columns within a series. Columns 12 and 24 were used as DMSO reference and contained no compound. For multiple compound concentration-response experiments, the compound aliquots ([…]) were robotically predispensed directly into black 384-well polypropylene PCR microplates (Abgene: TF-0384/k) using a Cartesian Hummingbird liquid handler (DigiLab, Holliston, Mass.). Following compound dispense, protein and dye solutions were added to achieve the final assay volume of 3 μL. The assay solutions were overlayed with 1 μL of silicone oil (Fluka, type DC 200: 85411) to prevent evaporation.
(§3) Assay plates were robotically loaded onto a thermostatically controlled PCR-type thermal block and then heated from 40 to 90° C. at a ramp-rate of 1° C./min for all experiments. Fluorescence was measured by continuous illumination with UV light (Hamamatsu LC6) supplied via fiber optics and filtered through a band-pass filter (380-400 nm; >6 OD cutoff). Fluorescence emission of the entire 384-well plate was detected by measuring light intensity using a CCD camera (Sensys, Roper Scientific) filtered to detect 500±25 nm, resulting in simultaneous and independent readings of all 384 wells. A single image with 20-sec exposure time was collected at each temperature, and the sum of the pixel intensity in a given area of the assay plate was recorded vs temperature and fit to standard equations to yield the Tm (J Biomol Screen 2001, 6, 429-40).
(§4) Thermodynamic parameters necessary for fitting compound binding for each proMMP were estimated by differential scanning calorimetry (DSC) and from ThermoFluor® data. The heat capacity of unfolding for each protein was estimated from the molecular weight and from ThermoFluor® dosing data.
The protein sample preparations included a desalting buffer exchange step via a PD-10 gravity column (GE Healthcare). The desalting buffer exchange was performed prior to diluting the protein to the final assay concentration of 2.8 μM proMMP9(20-445;ΔFnII) (SEQ ID NO:6). The concentration of proMMP9(20-445;ΔFnII) (SEQ ID NO:6) was determined spectrophotometrically based on a calculated extinction coefficient of ε280=39880 M^−cm^−1, a calculated molecular weight of 28.2 kDa, and calculated pI of 5.5. ThermoFluor® reference conditions were define as follows: 80 μg/mL (2.8 μM) proMMP9(20-445;ΔFnII) (SEQ ID NO:6), 50 μM 1,8-ANS, pH 7.0 Buffer (50 mM HEPES pH 7.0, 100 mM NaCl, 0.001% Tween-20, 2.5 mM MgCl2, 300 μM CaCl2). The thermodynamic parameters for proMMP9(20-445;ΔFnII) (SEQ ID NO:6) are as follows: Tm (° C.)=72 (+/−0.1), ΔUH(Tm) (cal mol^−1)=160000(+/−5000), ΔUS(Tm) (cal mol^−1 K^−1)=434, ΔUCp (cal mol^−1 K^−)=2400.

[2] = molecular target: T2, proMMP9(67-444;ΔFnII) (SEQ ID NO:5) (Homo sapiens, UniProt P14780, DEL216-390); experiment: ThermoFluor binding assay with proMMP9(67-444;ΔFnII); settings: pH 7.0
T2 construct: start methionine (N); made in house; host or cells: E. coli BL21(DE3) RIL
T2 sequence (P14780 with tags, fused parts or gaps DEL216-390): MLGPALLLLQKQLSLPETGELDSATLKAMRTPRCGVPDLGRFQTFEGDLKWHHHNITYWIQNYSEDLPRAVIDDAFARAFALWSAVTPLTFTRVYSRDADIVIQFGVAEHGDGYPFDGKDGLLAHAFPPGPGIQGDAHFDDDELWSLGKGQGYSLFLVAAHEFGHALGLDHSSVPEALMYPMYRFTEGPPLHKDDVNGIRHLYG
Protocol: as §1, §2, §3, §4
The protein sample preparations had to include a desalting buffer exchange step via a PD-10 gravity column (GE Healthcare). The desalting buffer exchange was performed prior to diluting the protein to the final assay concentration of 3.5 μM proMMP9(67-444;ΔFnII) (SEQ ID NO:5). The concentration of proMMP9(67-444;ΔFnII) (SEQ ID NO:5) was determined spectrophotometrically based on a calculated extinction coefficient of ε280=33900 M^−1cm^−1, a calculated molecular weight of 22.6 kDa, and calculated pI of 5.20. ThermoFluor® reference conditions were defined as follows: 80 μg/mL (3.5 μM) proMMP9(67-444;ΔFnII) (SEQ ID NO:5), 50 μM 1,8-ANS, pH 7.0 Buffer (50 mM HEPES pH 7.0, 100 mM NaCl, 0.001% Tween-20, 2.5 mM MgCl2, 300 μM CaCl2). The thermodynamic parameters for proMMP9(67-444;ΔFnII) (SEQ ID NO:5) are as follows: Tm (° C.)=63 (+/−0.1), ΔUH(Tm) (cal mol^−1)=105000(+/−5000), ΔUS(Tm) (cal mol^−1 K^−1)=[…], ΔUCp (cal mol^−1 K^−1)=2000.

[3] = molecular target: T3, full-length proMMP9(1-707) (SEQ ID NO:1) (Homo sapiens, UniProt P14780, R574P); experiment: proMMP9/MMP3 P126 Activation Assay; format: biochemical; settings: 20 nM proMMP9, 20 nM MMP3, 80 min 37° C.
T3 construct: made in house; host or cells: HEK293 (proMMP9, secreted); E. coli (MMP3)
T3 sequence (P14780 20-707 R574P): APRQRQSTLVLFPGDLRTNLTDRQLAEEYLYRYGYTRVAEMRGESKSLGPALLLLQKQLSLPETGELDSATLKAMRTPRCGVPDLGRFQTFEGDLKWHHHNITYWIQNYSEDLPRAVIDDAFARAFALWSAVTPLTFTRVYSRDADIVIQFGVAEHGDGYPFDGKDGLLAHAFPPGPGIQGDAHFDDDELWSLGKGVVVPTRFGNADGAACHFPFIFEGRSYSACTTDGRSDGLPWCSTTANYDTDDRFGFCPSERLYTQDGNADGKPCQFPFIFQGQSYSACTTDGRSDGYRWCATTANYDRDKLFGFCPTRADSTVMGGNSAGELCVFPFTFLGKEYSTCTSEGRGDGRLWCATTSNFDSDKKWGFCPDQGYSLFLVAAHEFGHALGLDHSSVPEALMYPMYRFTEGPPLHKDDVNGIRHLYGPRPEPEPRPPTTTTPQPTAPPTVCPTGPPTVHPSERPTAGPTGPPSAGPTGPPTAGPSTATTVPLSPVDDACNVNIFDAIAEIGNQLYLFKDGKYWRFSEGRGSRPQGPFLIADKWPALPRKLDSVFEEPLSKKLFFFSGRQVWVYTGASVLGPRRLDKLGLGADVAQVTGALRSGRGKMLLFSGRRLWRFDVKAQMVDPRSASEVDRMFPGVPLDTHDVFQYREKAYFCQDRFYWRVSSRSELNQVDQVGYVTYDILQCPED
Protocol: The reaction volume was 50 μL. […] Reactivity of residual MMP3 towards P-126 substrate was minimal under these conditions.

[4] = molecular target: proMMP13(1-268) (SEQ ID NO:7) (Homo sapiens, UniProt P45452); experiment: ThermoFluor binding assay with proMMP13(1-268); parameters: 6xHis (C); made in house; settings: pH 7.0
Protocol: as §1, §2, §3, §4
The proMMP13(1-268) (SEQ ID NO:7) protein sample preparations included a desalting buffer exchange step via a PD-10 gravity column (GE Healthcare). The desalting buffer exchange was performed prior to diluting the protein to the final assay concentration of 3.5 μM. The concentration of proMMP13(1-268) (SEQ ID NO:7) was estimated spectrophotometrically based on a calculated extinction coefficient of ε280=37000 M^−1cm^−1, a calculated molecular weight of 30.8 kDa, and calculated pI of 5.33. ThermoFluor® reference conditions were defined as follows: 100 μg/mL proMMP13(1-268) (SEQ ID NO:7), 25 μM 1,8-ANS, pH 7.0 Buffer (50 mM HEPES pH 7.0, 100 mM NaCl, 0.001% Tween-20, 2.5 mM MgCl2, 300 μM CaCl2). The thermodynamic parameters for proMMP13(1-268) (SEQ ID NO:7) are as follows: Tm (° C.)=67 (+/−0.1), ΔUH(Tm) (cal mol^−1)=107000(+/−5000), ΔUS(Tm) (cal mol^−1 K^−1)=318, ΔUCp (cal mol^−1 K^−1)=2600.

| Structure (SMILES) | Kd [1] [µM] | Kd [2] [µM] | IC50 [3] [µM] | Kd [4] [µM] |
| --- | --- | --- | --- | --- |
| Cc1nc(CN2CCCN(C)CC2)sc1-c1csc(Nc2cc(C(N)=O)ccc2OC(C)C)n1 [Example 126, 4-Isopropoxy-3-[4′-methyl-2′-(4-methyl-[1,4]diazepan-1-ylmethyl)-[4,5′]bithiazolyl-2-ylamino]-benzamide.TFA] | 1.1 | 4.7 | 0.77 | 11 |
| Cc1nc(C(=O)N2CCN(c3ccc(C(F)(F)F)cn3)CC2)sc1-c1csc(Nc2cc(C(N)=O)ccc2OC(C)C)n1 [Example 109, 4-Isopropoxy-3-{4′-methyl-2′-[4-(5-trifluoromethyl-pyridin-2-yl)-piperazine-1-carbonyl]-[4,5′]bithiazolyl-2-ylamino}-benzamide.TFA] | 3.8 | > 95 | 5.7 | > 95 |
| Cc1nc(CN2CCCC2)sc1-c1csc(Nc2cc(C(N)=O)ccc2OC(C)C)n1 [Example 130, 4-Isopropoxy-3-(4′-methyl-2′-pyrrolidin-1-ylmethyl-[4,5′]bithiazolyl-2-ylamino)-benzamide.TFA] | 0.55 | 3 | 0.7 | 4.9 |
| CC(C)Oc1ccc(C(N)=O)cc1Nc1nc(-c2sc(N)nc2C(F)(F)F)cs1 [Example 150, 3-(2′-Amino-4′-trifluoromethyl-[4,5′]bithiazolyl-2-ylamino)-4-isopropoxy-benzamide] | 0.16 | 1.3 | 1.2 | 0.22 |
| CC(=O)Nc1nc(C)c(-c2csc(Nc3cccc4c3OCCO4)n2)s1 [Example 19, N-[2-(2,3-Dihydro-benzo[1,4]dioxin-5-ylamino)-4′-methyl-[4,5′]bithiazolyl-2′-yl]-acetamide] | 17 | 11 |  | 62 |
| Cc1nc(C(=O)N2CCC(O)CC2)sc1-c1csc(Nc2cc(C(N)=O)ccc2OC(C)C)n1 [Example 105, 3-[2′-(4-Hydroxy-piperidine-1-carbonyl)-4′-methyl-[4,5′]bithiazolyl-2-ylamino]-4-isopropoxy-benzamide.TFA] | 0.24 | 2.9 |  | 1.3 |
| COc1ccc(C(=O)NCCN2CCCCC2)cc1Nc1nc(-c2sc(NC(C)=O)nc2C)cs1 [Example 58, 3-(2′-Acetylamino-4′-methyl-[4,5′]bithiazolyl-2-ylamino)-4-methoxy-N-(2-piperidin-1-yl-ethyl)-benzamide.TFA] | 19 | 6.5 |  | > 95 |

Other lines, results leading:

| Kd [1] [µM] | Kd [2] [µM] | IC50 [3] [µM] | Kd [4] [µM] | Structure (SMILES) |
| --- | --- | --- | --- | --- |
| 0.52 | 0.62 | 0.64 | 0.37 | CCOC(=O)c1ccc(OCC)c(Nc2nc(-c3sc(N)nc3C)cs2)c1 [Example 81, 3-(2′-Amino-4′-methyl-[4,5′]bithiazolyl-2-ylamino)-4-ethoxy-benzoic acid ethyl ester.TFA] |
| 18 | 4.9 | 4.1 | > 95 | COc1ccc(CC(N)=O)cc1Nc1nc(-c2sc(C)nc2C)cs1 [Example 30, 2-[3-(2′,4′-Dimethyl-[4,5′]bithiazolyl-2-ylamino)-4-methoxy-phenyl]-acetamide] |
| 8.6 | 2.3 |  | 25 | COc1ccc(C)cc1Nc1nc(-c2sc(N)nc2C)cs1 [Example 24, N^2-(2-Methoxy-5-methyl-phenyl)-4′-methyl-[4,5′]bithiazolyl-2,2′-diamine.HBr] |
| 15 | 3.5 |  | 13 | CCOC(=O)c1ccc(OCC)c(Nc2nc(-c3sc(C)nc3C)cs2)c1 [Example 82, 3-(2′,4′-Dimethyl-[4,5′]bithiazolyl-2-ylamino)-4-ethoxy-benzoic acid ethyl ester.HBr] |
| 3 | 2.8 |  | 7.8 | CNC(=O)c1ccc(OC)c(Nc2nc(-c3sc(NC(C)=O)nc3C)cs2)c1 [Example 65, 3-(2′-Acetylamino-4′-methyl-[4,5′]bithiazolyl-2-ylamino)-4-methoxy-N-methyl-benzamide.TFA] |
| 0.74 | 2.5 |  | 16 | COc1ccc(C(N)=O)cc1Nc1nc(-c2sc(N3CCN(C)CC3)nc2C)cs1 [Example 93, 4-Methoxy-3-[4′-methyl-2′-(4-methyl-piperazin-1-yl)-[4,5′]bithiazolyl-2-ylamino]-benzamide.TFA] |
| 9.6 | 2.9 |  | 1.7 | CCN(CC)S(=O)(=O)c1ccc(OC)c(Nc2nc(-c3sc(N)nc3C)cs2)c1 [Example 21, 3-(2′-Amino-4′-methyl-[4,5′]bithiazolyl-2-ylamino)-N,N-diethyl-4-methoxy-benzenesulfonamide.HBr] |
| 12 | 15 |  | 0.98 | COc1ccc(-c2ccccc2)cc1Nc1nc(-c2sc(N)nc2C)cs1 [Example 23, N^2-(4-Methoxy-biphenyl-3-yl)-4′-methyl-[4,5′]bithiazolyl-2,2′-diamine.HBr] |
